Patent US12091409B2, “Ether linked triazoles as NRF2 activators” (ASTEX THERAPEUTICS LIMITED, priority 2016, dated 2024)

What follows are compounds tested on NQO1 specific enzyme activity in BEAS-2B cells (marker for NRF2 activation) (assay: BEAS-2B NQO1 MTT Assay). Details: Homo sapiens, BEAS-2B, 48 h, NQO1 specific activity induction, 48 hours with compound.
Format: cell-based
Description: NAD(P)H:quinone oxidoreductase 1 (NQO1), also called DT diaphorase, is a homodimeric FAD-containing enzyme that catalyzes obligatory NAD(P)H-dependent two-electron reductions of quinones and protects cells against the toxic and neoplastic effects of free radicals and reactive oxygen species arising from one-electron reductions. The transcription of NQO1 is finely regulated by NRF2, and thus NQO1 activity is a good marker for NRF2 activation. On day one, frozen BEAS-2B cells (ATCC) were thawed in a water bath, counted, and re-suspended at a concentration of 250,000 cells/mL. Fifty microliters of cells were plated in 384 well black clear-bottomed plates. Plates were incubated at 37° C., 5% CO2 overnight. On day two, plates were centrifuged and 50 nL of compound or controls were added to the cells. Plates were then incubated at 37° C., 5% CO2 for 48 hours. On day four, medium was aspirated from the plate and crude cell lysates were made by adding 13 uL of 1× Cell Signaling Technologies lysis buffer with 1 Complete, Mini, EDTA-free Protease Inhibitor Tablet (Roche) for each 10 mL of lysis buffer. After lysis plates were incubated for 20 minutes at room temperature. Two microliters of lysate were removed for use in Cell Titer Glo assay (Promega) and MTT cocktail was prepared (Prochaska et. al. 1998) for measurement of NQO1 activity. Fifty microliters of MTT cocktail was added to each well, plate was centrifuged, and analyzed on an Envision plate reader (Perkin Elmer) using Absorbance 570 nm label for 30 minutes. Product formation was measured kinetically and the pEC50 of NQO1 specific activity induction was calculated by plotting the change in absorbance (Delta OD/min) versus the log of compound concentration followed by 3-parameter fitting.
pEC50 is the negative log of the EC50.
EC50s<1 nM (+++++), EC50s 1 nM-10 nM (++++), EC50s 10 nM-100 nM (+++), EC50s 100 nM-1 uM (++), EC50s 1 uM-10 uM (+); EC50s>10 uM (−), or were not determined (ND).

Compared with Cc1ccc([C@@H](OCc2cn(C)nn2)C(C)(C)C(=O)O)cc1CN1Cc2ncccc2O[C@H](C(C)C)C1 [Example 109, (R)-3-(3-(((R)-2-isopropyl-2,3-dihydropyrido[2,3-b][1,4]-oxazepin-4(5H)-yl)methyl)-4-methylphenyl)-2,2-dimethyl-3-((1-methyl-1H-1,2,3-triazol-4-yl)methoxy)propanoic acid], CC[C@@H]1CN(Cc2cc([C@@H](OCc3cn(C)nn3)C(C)(C)C(=O)O)ccc2C)S(=O)(=O)c2ncccc2O1 [Example 121, (R)-3-(3-(((R)-4-Ethyl-1,1-dioxido-3,4-dihydro-2H-pyrido[3,2-b][1,4,5]oxathiazepin-2-yl)methyl)-4-methylphenyl)-2,2-dimethyl-3-((1-methyl-1H-1,2,3-triazol-4-yl)methoxy)propanoic acid] is lower in EC50: 10 to 100 nM for the first, 1 to 10 nM for the second.

CCn1cc(CO[C@H](c2ccc(C)c(CN3C[C@H](C)Cc4ccccc4S3(=O)=O)c2)C(C)(C)C(=O)O)nn1 [Example 70, (3R)-((1-ethyl-1H-1,2,3-triazol-4-yl)methoxy)-2,2-dimethyl-3-(4-methyl-3-(((R)-4-methyl-1,1-dioxido-4,5-dihydrobenzo[f][1,2]thiazepin-2(3H)-yl)methyl)phenyl)propanoic acid] and CCn1cc(CO[C@@H](c2ccc(C)c(CN3C[C@@H](C)Cc4ncccc4S3(=O)=O)c2)C(C)(C)C(=O)O)nn1 [Example 72, (3S)-((1-ethyl-1H-1,2,3-triazol-4-yl)methoxy)-2,2-dimethyl-3-(4-methyl-3-(((S)-4-methyl-1,1-dioxido-4,5-dihydropyrido[2,3-f][1,2]thiazepin-2(3H)-yl)methyl)phenyl)propanoic acid] fall in the same range of EC50: 10 to 100 nM for the first, 10 to 100 nM for the second.

Cc1ccc(C(OCc2cn(Cc3cccc(Cn4cc(C(=O)O)nn4)c3)nn2)C(C)(C)C(=O)O)cc1CN1C[C@@H](C)Oc2ccccc2S1(=O)=O (stereo partly drawn) [Example 43, 1-(3-((4-((2-Carboxy-2-methyl-1-(4-methyl-3-(((R)-4-methyl-1,1-dioxido-3,4-dihydro-2H-[b][1,4,5]oxathiazepin-2-yl)methyl)phenyl)propoxy)methyl)-1H-1,2,3-triazol-1-yl)methyl)benzyl)-1H-1,2,3-triazole-4-carboxylic acid] and Cc1ccc(C(OCc2cn(Cc3cccc(Cn4cc(CCC(=O)O)nn4)c3)nn2)C(C)(C)C(=O)O)cc1CN1C[C@@H](C)Oc2ccccc2S1(=O)=O (stereo partly drawn) [Example 45, 3-((1-(3-((4-(2-Carboxyethyl)-1H-1,2,3-triazol-1-yl)methyl)benzyl)-1H-1,2,3-triazol-4-yl)methoxy)-2,2-dimethyl-3-(4-methyl-3-(((R)-4-methyl-1,1-dioxido-3,4-dihydro-2H-benzo[b][1,4,5]oxathiazepin-2-yl)methyl)phenyl)propanoic acid] fall in the same range of EC50: 100 to 1000 nM for the first, 100 to 1000 nM for the second.

First: CCCN1CCC(Cn2cc(COC(c3ccc(C)c(CN4C[C@@H](C)Oc5ccccc5S4(=O)=O)c3)C(C)(C)C(=O)O)nn2)CC1 (stereo partly drawn) [Example 52, 2,2-Dimethyl-3-(4-methyl-3-(((R)-4-methyl-1,1-dioxido-3,4-dihydro-2H-benzo[b][1,4,5]oxathiazepin-2-yl)methyl)phenyl)-3-((1-((I-propylpiperidin-4-yl)methyl)-1H-1,2,3-triazol-4-yl)methoxy)propanoic acid]
Second: CCCn1cc(COC(c2ccc(C)c(CN3C[C@@H](CC)Oc4ccccc4S3(=O)=O)c2)C(C)(C)C(=O)O)nn1 (stereo partly drawn) [Example 4, 3-(3-(((R)-4-ethyl-1,1-dioxido-3,4-dihydro-2H-benzo[b][1,4,5]oxathiazepin-2-yl)methyl)-4-methylphenyl)-2,2-dimethyl-3-((1-propyl-1H-1,2,3-triazol-4-yl)methoxy)propanoic acid]
The EC50 of the first is higher: 100 to 1000 nM for the first, < 1 nM for the second.

Compared with CCCn1cc(COC(c2ccc(C)c(CN3CC(C)(C)Oc4ccccc4S3(=O)=O)c2)C(C)(C)C(=O)O)nn1 (centres unmarked) [Example 9, 3-(3-((4,4-Dimethyl-1,1-dioxido-3,4-dihydo-2H-benzo[b][1,4]oxathiazepin-2-yl)methyl)-4-methylphenyl)-2,2-dimethyl-3-((1-propyl-1H-1,2,3-triazol-4-yl)methoxy)-propanoic acid], CC[C@@H]1CN(Cc2cc(C(OCc3cn(CC)nn3)C(C)(C)C(=O)O)ccc2C)S(=O)(=O)c2ccccc2O1 (stereo partly drawn) [Example 10, 3-(3-(((R)-4-ethyl-1,1-dioxido-3,4-dihydro-2H-benzo[b][1,4,5]oxathiazepin-2-yl)methyl)-4-methylphenyl)-3-((1-ethyl-1H-1,2,3-triazol-4-yl)methoxy)-2,2-dimethylpropanoic acid] is lower in EC50: 1 to 10 nM for the first, < 1 nM for the second.

Compared with Cc1ccc(C(OCc2cn(C3CCCCC3)nn2)C(C)(C)C(=O)O)cc1CN1C[C@@H](C)Oc2ccccc2S1(=O)=O (stereo partly drawn) [Example 17, 3-((1-Cyclohexyl-1H-1,2,3-triazol-4-yl)methoxy)-2,2-dimethyl-3-(4-methyl-3-(((R)-4-methyl-1,1-dioxido-3,4-dihydro-2H-benzo[b][1,4,5]oxathiazepin-2-yl)methyl)phenyl)propanoic acid], CC[C@@H]1CN(Cc2cc([C@@H](OCc3cn(CC)nn3)C(C)(C)C(=O)O)ccc2C)S(=O)(=O)c2ccccc2O1 [Example 5, (R)-3-(3-(((R)-4-ethyl-1,1-dioxido-3,4-dihydro-2H-benzo[b][1,4,5]oxathiazepin-2-yl)methyl)-4-methylphenyl)-3-((1-ethyl-1H-1,2,3-triazol-4-yl)methoxy)-2,2-dimethylpropanoic acid] is lower in EC50: 1 to 10 nM for the first, < 1 nM for the second.

Compared with CC[C@@H]1CN(Cc2cc([C@H](OCc3cn(CC)nn3)C(C)(C)C(=O)O)ccc2C)Cc2ccccc2O1 [Example 118], CCCn1cc(CO[C@H](c2ccc(C)c(CN3C[C@H](C)Cc4ccc(F)cc4S3(=O)=O)c2)C(C)(C)C(=O)O)nn1 [Example 76, (3R)-(3-(((R)-8-fluoro-4-methyl-1,1-dioxido-4,5-dihydrobenzo[f][1,2]thiazepin-2(3H)-yl)methyl)-4-methylphenyl)-2,2-dimethyl-3-((1-propyl-1H-1,2,3-triazol-4-yl)methoxy)propanoic acid] is lower in EC50: 1000 to 10000 nM for the first, 1 to 10 nM for the second. The second is the more potent here.

Compared with Cc1ccc([C@@H](OCc2cn(Cc3ccc(Cn4cc(CO[C@H](c5ccc(C)c(CN6C[C@@H](C)Oc7ccccc7S6(=O)=O)c5)C(C)(C)C(=O)O)nn4)cc3)nn2)C(C)(C)C(=O)O)cc1CN1C[C@@H](C)Oc2ccccc2S1(=O)=O (relative stereo) [Example 49, (R,rel-(3R,3′R))-3,3′-(((1,1′-(1,4-phenylenebis(methylene))bis(1H-1,2,3-triazole-4,1-diyl))bis(methylene))bis(oxy))bis(2,2-dimethyl-3-(4-methyl-3-(((R)-4-methyl-1,1-dioxido-3,4-dihydro-2H-benzo[b][1,4,5]oxathiazepin-2-yl)methyl)phenyl)propanoic acid)], Cc1ccc(C(OCc2cn(Cc3cccc(Cn4cc(C(C)(C)O)nn4)c3)nn2)C(C)(C)C(=O)O)cc1CN1C[C@@H](C)Oc2ccccc2S1(=O)=O (stereo partly drawn) [Example 41, 3-((1-(3-((4-(2-Hydroxypropan-2-yl)-1H-1,2,3-triazol-1-yl)methyl)benzyl)-1H-1,2,3-triazol-4-yl)methoxy)-2,2-dimethyl-3-(4-methyl-3-(((R)-4-methyl-1,1-dioxido-3,4-dihydro-2H-benzo[b][1,4,5]oxathiazepin-2-yl)methyl)phenyl)propanoic acid] is lower in EC50: 100 to 1000 nM for the first, 10 to 100 nM for the second.

Compared with Cc1ccc(C(OCc2cn(Cc3cccc(Cn4cc(CCCCO)nn4)c3)nn2)C(C)(C)C(=O)O)cc1CN1C[C@@H](C)Oc2ccccc2S1(=O)=O (stereo partly drawn) [Example 42, 3-((1-(3-((4-(4-Hydroxybutyl)-1H-1,2,3-triazol-1-yl)methyl)benzyl)-1H-1,2,3-triazol-4-yl)methoxy)-2,2-dimethyl-3-(4-methyl-3-(((R)-4-methyl-1,1-dioxido-3,4-dihydro-2H-benzo[b][1,4,5]oxathiazepin-2-yl)methyl)phenyl)propanoic acid], CCn1cc(COC(c2ccc(C)c(CN(Cc3ccccc3)S(=O)(=O)c3cccc(C(=O)O)c3)c2)C(C)(C)C(=O)O)nn1 (centres unmarked) [Example 95, 3-(N-benzyl-N-(5-(2-carboxy-1-((1-ethyl-1H-1,2,3-triazol-4-yl)methoxy)-2-methylpropyl)-2-methylbenzyl)sulfamoyl)benzoic acid] is higher in EC50: 10 to 100 nM for the first, 100 to 1000 nM for the second. The first is the more potent here.

For CCn1cc(COC(c2ccc(C)c(CN(Cc3ccccn3)S(=O)(=O)c3cccc(Br)c3)c2)C(C)(C)C(=O)O)nn1 (centres unmarked) [Example 74, 3-(3-(((3-Bromo-N-(pyridin-2-ylmethyl)phenyl)sulfonamido)methyl)-4-methylphenyl)-3-((1-ethyl-1H-1,2,3-triazol-4-yl)methoxy)-2,2-dimethylpropanoic acid], the EC50 was 10 to 100 nM.

Same assay, conditions: NQO1 specific activity induction, 48 hours with compound

Cc1ccc(C(OCc2cn(C3COC3)nn2)C(C)(C)C(=O)O)cc1CN1C[C@@H](C)Cc2ccncc2S1(=O)=O (single isomer, unassigned) [Example 103] showed an EC50 of 1 to 10 nM.
